What all share (assay type): cell-based
Assay [1] concerns a collection of yeasts. As to conditions: pH 3.5. The procedure:
Cultures were grown in GPY-broth that contained per liter demineralised-water: 40 g glucose, 5 g peptone and 5 g yeast extract, the pH of the medium to 3.5 with 2 N HCl. Cultures were grown in screw-capped tubes for at least 48 hours at 25° C. Pichia membranifaciens MUCL 27794, CBS 8427 and CBS 5567, Rhodotorula glutinis CBS 2367, Rhodotorula mucilaginosa CBS 8054 and CBS 2401 and Zygosaccharomyces bailii MUCL 27812 were cultured in shake flasks
The inhibition tests were carried out in sterile 96-well microtiter plates. Increasing amounts (0 to 100 μL in 10 steps of 10 μL) of a sterile stock solution of each compound were transferred to sterile microtiter plates. Next 100 μL of filter sterilized double strength GPY-broth was added and the volume of each well was adjusted to 200 μL with sterile demineralized-water. Plates were inoculated with 2 μL of two days old cultures and incubated for 96 hours at 25° C. Growth was quantified by measuring the optical density at 595 nm in a microplate reader. All the experiments were carried out in duplicate.

For assay [2], the system named is Saccharomyces cerevisiae. In words: Screening of combinations of three ingredients, outgrowth in GPY-broth pH 3.5. The procedure:
These combination tests were also carried out in sterile 96-well microtiter plates. Sterile GPY-broth was prepared with increasing quantities of inhibitors. For the first dimension the concentrations of the first inhibitor was presented in 8 equal concentration steps. For the second dimension a fixed ratio of two other inhibitors was chosen. This mixture was presented in 8 equal concentration steps resulting in 64 different media. […] of each medium was transferred to a panel of a sterile 96-well microtiter plate. Completed well plates were stored at 4° C. until further use. Plates were inoculated with 2 μL of two days old cultures and incubated for 96 hours at 25° C. Growth was quantified by measuring the optical density at 595 nm in a microplate reader and expressed as a percentage of the growth in the control, which contained no inhibitor. All the experiments were carried out in duplicate.

The subject of assay [3] is Schizosaccharomyces pombe. In words: Screening of combinations of two inhibitors, outgrowth in GPY-broth pH 3.5. Here is the method:
These combination tests were carried out in sterile 96-well microtiter plates. Sterile GPY-broth was prepared with increasing quantities of two different inhibitors. The concentrations of each inhibitor were presented in 8 equal concentration steps that ranged from 0 to 1-2 times the MIC value of a particular yeast for a particular inhibitor resulting in 64 different media. […] of each medium was transferred to a panel of a sterile 96-well microtiter plate. Completed well plates were stored at 4° C. until further use.
Plates were inoculated with 2 μL of two days old cultures and incubated for 96 hours at 25° C. Growth was quantified by measuring the optical density at 595 nm in a microplate reader and expressed as a percentage of the growth in the control, which contained no inhibitor. All the experiments were carried out in duplicate.

Read-outs that look alike come from different tables or passages of the source.

As to `O=C(O)C=Cc1ccccc1` [Cinnamic acid, cinnamic acid], the “Comparison of inhibitory potency (in words)” value in assay [1] (MIC values of a number of yeasts) is on record as “more effective than sorbic acid”. In addition, the “MICavg (Average Minimal Inhibitory Concentration)” value in assay [1] (collection of yeasts) turned out to be 0.009 ± 0.007 % w/v. Also, in assay [1] (collection of yeasts), the “MICmax (Maximum MIC)” value turned out to be 0.03 % w/v. Moreover, the MICmax/MICavg in assay [1] (collection of yeasts) stood at 3.0. The “Outgrowth (% of outgrowth at zero concentration inhibitor)” value in assay [2] (MCE 8060-ε-polylysine mixture (ratio 18.9) 0, cinnamic acid 0.002 (% w/v)) is 76%; in assay [2] (MCE 8060-ε-polylysine mixture (ratio 18.9) 0, cinnamic acid 0.004 (% w/v)), 44%; in assay [2] (MCE 8060-ε-polylysine mixture (ratio 18.9) 0, cinnamic acid 0.006 (% w/v)), 1%; in assay [2] (MCE 8060-ε-polylysine mixture (ratio 18.9) 0, cinnamic acid 0.008 (% w/v)), 0%; in assay [2] (MCE 8060-ε-polylysine mixture (ratio 18.9) 0, cinnamic acid 0.01 (% w/v)), 2%; in assay [2] (MCE 8060-ε-polylysine mixture (ratio 18.9) 0, cinnamic acid 0.012 (% w/v)), 1%. Further, in assay [2] (MCE 8060-ε-polylysine mixture (ratio 18.9) 0, cinnamic acid 0.014 (% w/v)), the “Outgrowth (% of outgrowth at zero concentration inhibitor)” value is 0%.
Take `C/C=C/C=C/C(=O)[O-].[K+]` [Potassium sorbate, potassium sorbate]: the “Outgrowth (% of outgrowth at zero concentration inhibitor)” value turned out to be 81% in assay [3] (ε-polylysine 0, potassium sorbate 0.007 (% w/v)); 69% in assay [3] (ε-polylysine 0, potassium sorbate 0.014 (% w/v)); 56% in assay [3] (ε-polylysine 0, potassium sorbate 0.021 (% w/v)); 44% in assay [3] (ε-polylysine 0, potassium sorbate 0.028 (% w/v)); 30% in assay [3] (ε-polylysine 0, potassium sorbate 0.035 (% w/v)); 20% in assay [3] (ε-polylysine 0, potassium sorbate 0.042 (% w/v)). For the same compound, the “Outgrowth (% of outgrowth at zero concentration inhibitor)” value in assay [3] (ε-polylysine 0, potassium sorbate 0.049 (% w/v)) is reported as 7%.
For the compound `C/C=C/C=C/C(=O)O` [Sorbic acid], in assay [1], the “MICavg (Average Minimal Inhibitory Concentration)” value is 0.030 ± 0.020 % w/v, the “MICmax (Maximum MIC)” value is reported as 0.07 % w/v and the MICmax/MICavg is on record as 2.5.
